Like-named read-outs stand apart in the source and are kept apart here.
What was measured:
cell membrane [1] = assay: Fusion quality of R groups bound to amphipathic molecules B in the fusion mixture
Description: (§1) After homogenization in the organic solvent, the organic solvent should be removed.
(§2) The dried mixture is taken up in an aqueous buffer solution, preferably having a pH value of 7, and is homogenized once more. Advantageously a liposome forms, which comprises the molecule types that were added. Molecules of molecule types E and F can likewise be added.
(§3) According to the actual method, the fusion mixture is diluted with a cell medium, e.g. 1:100 (mixture:cell medium v/v), homogenized once more, and added to the cells.
(§4) To this end it is sufficient for the cells to be brought in contact with the mixture for approximately 1 to 60 minutes, and in the case of tissue samples, for 60 to 120 minutes, for example. A cell washing step should then be incorporated.

cell membrane [2] = tested on: cell membrane
Description: as §1, §2, §3, §4

[3] = R group covalently bound to lipid (molecule type B)

| Compound | Fusion quality (cell membrane [1]; [3]) | Fusion quality (cell membrane [1]) | also measured |
| --- | --- | --- | --- |
| CCCCCCCCCCCCCCCCCCN1C(=CC=Cc2oc3ccccc3[n+]2CCCCCCCCCCCCCCCCCC)Oc2ccccc21.[O-][Cl+3]([O-])([O-])[O-] [DiO per se, DiOC18(3)3,3′-dioctadecyloxacarbocyanine perchlorate] | 1 |  |  |
| CCCCCCCC/C=C\CCCCCCCC(=O)OC[C@H](COP(=O)(O)OCCNS(=O)(=O)c1ccc(-c2c3ccc(N(CC)CC)cc3[o+]c3cc(N(CC)CC)ccc23)c(S(=O)(=O)[O-])c1)OC(=O)CCCCCCC/C=C\CCCCCCCC.CCN(CC)CC [LR, Lissamine rhodamine B 1,2-diolenoyl-sn-glycero-3-phosphoethanolamine, (triethylammonium salt)] |  | 1 |  |
| CCCCCCCC/C=C\CCCCCCCC(=O)OC[C@H](COP(=O)(O)OCCNc1ccc([N+](=O)[O-])c2nonc12)OC(=O)CCCCCCC/C=C\CCCCCCCC.CCN(CC)CC [NBD, N-(7-nitrobenz-2-oxa-1,3-diazol-4-yl)-1,2-diolenoyl-sn-glycero-3-phosphoethanolamine (triethylammonium salt)] |  | 2 |  |
| CCCCCCCC/C=C\CCCCCCCC(=O)OC[C@H](COP(=O)(O)OCCNC(=O)OCCOCCOCCOCCOCCOCCOCCOCCOCCOCCOCCOCCOCCOCCOCCOCCOCCOCCOCCOCCOCCOCCOCCOCCOCCOCCOCCOCCOCCOCCOCCOCCOCCOCCOCCOCCOCCOCCOCCOCCOCCOCCOCCOCCOCCOC)OC(=O)CCCCCCC/C=C\CCCCCCCC.N [PEG(2000), 1,2-dioleoyl-sn-glycero-3-phosphoethanolamine-N-[methoxy(polyethylene glycol)-2000](ammonium salt)] | 6 |  | toxic (cell membrane [1]; [3]): toxic |
| CCCCCCCC/C=C\CCCCCCCC(=O)OC[C@H](COP(=O)(O)OCCNC(=O)CCCCCNC(=O)CCCCC1SCC2NC(=O)NC21)OC(=O)CCCCCCC/C=C\CCCCCCCC (stereo partly drawn) [capBiotin, 1,2-dioleoyl-sn-glycero-3-phosphoethanolamine-N-cap-biotin] |  | 6 | function as fusion-inducing molecule type B (cell membrane [1]): do not, however, function |
| CCCCC/C=C\C/C=C\C/C=C\C/C=C\CCCC(=O)O[C@H](COC(=O)CCCCCCCCCCCCCCCCC)COP(=O)([O-])O[C@H]1C(O)C(O)C(O)[C@@H](O)C1O.[Na+] (stereo partly drawn) [inositol, L-α-phosphatidylinositol (sodium salt)] | 6 |  | function as fusion-inducing molecule type B (cell membrane [1]): non-functional; toxic (cell membrane [1]; [3]): toxic |
| c1cc2ccc3cccc4ccc(c1)c2c34 [pyrene] |  |  | toxic (cell membrane [2]): 5(toxic) |
| Texas Red 1,2-dihexadecanoyl-sn-glycero-3-phosphoethanolamine (triethylammonium salt) [Texas-Red] | 1 |  |  |

From patent publication US20120100077A1, “MIXTURE OF AMPHIPATHIC MOLECULES AND METHOD FOR MODIFYING CELL MEMBRANES BY MEANS OF FUSION” (priority 2009, published 2012)
